pIC50: −log10 of the molar value.

The target of this test is T1, Met kinase (Homo sapiens, UniProt P08581).
T1 construct: 6His (N); purchased Upstate 14-526; host or cells: Sf21 insect cells (S. frugiperda), baculovirus
T1 sequence (P08581 974-1390 limits assumed): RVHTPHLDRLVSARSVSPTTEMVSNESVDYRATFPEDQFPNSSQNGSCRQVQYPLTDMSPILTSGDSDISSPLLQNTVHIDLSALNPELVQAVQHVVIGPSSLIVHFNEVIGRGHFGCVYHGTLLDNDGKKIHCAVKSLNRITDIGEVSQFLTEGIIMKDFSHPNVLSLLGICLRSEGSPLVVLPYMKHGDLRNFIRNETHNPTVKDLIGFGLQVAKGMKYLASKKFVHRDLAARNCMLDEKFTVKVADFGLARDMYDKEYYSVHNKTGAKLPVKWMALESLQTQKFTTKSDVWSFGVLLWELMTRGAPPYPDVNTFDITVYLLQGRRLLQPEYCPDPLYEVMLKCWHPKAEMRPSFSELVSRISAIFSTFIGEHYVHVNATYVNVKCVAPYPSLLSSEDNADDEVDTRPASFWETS
The test can be described thus: Met kinase inhibition (enzyme assay), flashplate method. Type of test: biochemical. The text has this:
Measurement of Met Kinase Activity
According to the manufacturer's data (Met, active, upstate, catalogue No. 14-526), Met kinase is expressed for the purposes of protein production in insect cells (Sf21; S. frugiperda) and subsequent affinity-chromatographic purification as “N-terminal 6His-tagged” recombinant human protein in a baculovirus expression vector.
The kinase activity can be measured using various available measurement systems. In the scintillation proximity method (Sorg et al., J. of Biomolecular Screening, 2002, 7, 11-19), the flashplate method or the filter binding test, the radioactive phosphorylation of a protein or peptide as substrate is measured using radioactively labelled ATP (^32P-ATP, ^33P-ATP). In the case of the presence of an inhibitory compound, a reduced radioactive signal, or none at all, can be detected. Furthermore, homogeneous time-resolved fluorescence resonance energy transfer (HTR-FRET) and fluoroescence polarisation (FP) technologies can be used as assay methods (Sills et al., J. of Biomolecular Screening, 2002, 191-214).
Flashplate Method (Met Kinase)
The test plates used are 96-well Flashplate® microtitre plates from Perkin Elmer (Cat. No. SMP200). The components of the kinase reaction described below are pipetted into the assay plate. The Met kinase and the substrate poly Ala-Glu-Lys-Tyr, (pAGLT, 6:2:5:1), are incubated for 3 hrs at room temperature with radioactively labelled ^33P-ATP in the presence and absence of test substances in a total volume of 100 μl. The reaction is terminated using 150 μl of a 60 mM EDTA solution. After incubation for a further 30 min at room temperature, the supernatants are filtered off with suction, and the wells are washed three times with 200 μl of 0.9% NaCl solution each time. The measurement of the bound radioactivity is carried out by means of a scintillation measuring instrument (Topcount NXT, Perkin-Elmer).
The full value used is the inhibitor-free kinase reaction. This should be approximately in the range 6000-9000 cpm. The pharmacological zero value used is staurosporin in a final concentration of 0.1 mM. The inhibitory values (IC50) are determined using the RS1_MTS program.
Kinase reaction conditions per well: • 30 μl of assay buffer • 10 μl of substance to be tested in assay buffer with 10% of DMSO • 10 μl of ATP (final concentration 1 μM cold, 0.35 μCi of ^33P-ATP) • 50 μl of Met kinase/substrate mixture in assay buffer; • (10 ng of enzyme/well, 50 ng of pAGLT/well)
50 mM HEPES • 3 mM magnesium chloride • 3 μM sodium orthovanadate • 3 mM manganese(II) chloride • 1 mM dithiothreitol (DTT)
pH=7.5 (to be set using sodium hydroxide)
60 mM Titriplex III (EDTA)
Met kinase: Upstate, Cat. No. 14-526, Stock 1 μg/10 μl; spec. activity 954 U/mg;
Poly-Ala-Glu-Lys-Tyr, 6:2:5:1: Sigma Cat. No. P1152
Pharmacological Data Met Kinase Inhibitions (Enzyme Assay)
`CCOC(=O)Nc1cccc(Cn2nc(-c3ccc(-c4nnn[nH]4)cc3)ccc2=O)c1` [A172, ethyl(3-{6-oxo-3-[4-(1H-tetrazol-5-yl)phenyl]-6H-pyridazin-1-ylmethyl}phenyl)carbamate] showed a pIC50 of 6.00 to 8.00.

`CCOC(=O)Nc1cccc(Cn2nc(-c3ccc(CNC(=O)CN4CCN(C(=O)OC(C)(C)C)CC4)cc3)ccc2=O)c1` [A86] gave a pIC50 of 6.00 to 8.00. `CCOC(=O)Nc1cccc(Cn2nc(-c3cccc(CNC(=O)Cn4ccccc4=O)c3)ccc2=O)c1` [A94] gave a pIC50 of 6.00 to 8.00. As for `CCOC(=O)Nc1cccc(Cn2nc(-c3cccc(CC(=O)NCCCO)c3)ccc2=O)c1` [A66], the figure is 6.00 to 8.00; as for `CCOC(=O)Nc1cccc(Cn2nc(-c3ccc(C(=O)NCCN4CCCCC4)cc3)ccc2=O)c1` [A18], 6.00 to 8.00. In turn, `CCOC(=O)Nc1cccc(Cn2nc(-c3cccc(CC(=O)NCCCCO)c3)ccc2=O)c1` [A71] showed a pIC50 of 6.00 to 8.00.

As to `CCOC(=O)Nc1cccc(Cn2nc(-c3ccc(CO)cc3)ccc2=O)c1` [A123, ethyl{3-[3-(4-hydroxymethylphenyl)-6-oxo-6H-pyridazin-1-ylmethyl]phenyl}carbamate], the pIC50 is 6.00 to 8.00. Regarding `CCOC(=O)Nc1cccc(Cn2nc(-c3cccc(CC(=O)NCCCN)c3)ccc2=O)c1` [A140], the pIC50 was 6.00 to 8.00. `CCOC(=O)Nc1cccc(Cn2nc(-c3ccc(CNC(=O)CCN4CCNCC4)cc3)ccc2=O)c1` [A142] gave a pIC50 of 6.00 to 8.00.

For the compound `CCOC(=O)Nc1cccc(Cn2nc(-c3ccc(CNC(=O)Cn4cnnn4)cc3)ccc2=O)c1` [A79], the pIC50 was 6.00 to 8.00.

Take `CCOC(=O)Nc1cccc(Cn2nc(-c3ccc(C(=O)N(C)CCN(CC)CC)cc3)ccc2=O)c1` [A19]: the pIC50 is 6.00 to 8.00.

Compound `CCOC(=O)Nc1cccc(Cn2nc(-c3cccc(CNC(=O)CCN(CC)CC)c3)ccc2=O)c1` [A107] had a pIC50 of 6.00 to 8.00. Compound `CCOC(=O)Nc1cccc(Cn2nc(-c3ccc(C(=O)N(C)CCO)cc3)ccc2=O)c1` [A12] had a pIC50 of 6.00 to 8.00. The compound `CCOC(=O)Nc1cccc(Cn2nc(-c3cccc(C(=O)NCCCOC)c3)ccc2=O)c1` [A51] had a pIC50 of 6.00 to 8.00. As to `CCOC(=O)Nc1cccc(Cn2nc(-c3cccc(CNC(=O)CN4CCCCC4)c3)ccc2=O)c1` [A110], the pIC50 is 6.00 to 8.00. `CCOC(=O)Nc1cccc(Cn2nc(-c3ccc(CNC(=O)Cc4nnn[nH]4)cc3)ccc2=O)c1` [A77] had a pIC50 of 6.00 to 8.00. `CCOC(=O)Nc1cccc(Cn2nc(-c3cccc(CNC(=O)CN4CCOCC4)c3)ccc2=O)c1` [A98] gave a pIC50 of 6.00 to 8.00.

`CCOC(=O)Nc1cccc(Cn2nc(-c3ccc(CC(=O)NCCCCNC(=O)OC(C)(C)C)cc3)ccc2=O)c1` [A54, ethyl[3-(3-{4-[(4-tert-butoxycarbonylaminobutyl-carbamoyl)methyl]phenyl}-6-oxo-6H-pyridazin-1-ylmethyl)phenyl]-carbamate]: the pIC50 was 6.00 to 8.00. Under `CCOC(=O)Nc1cccc(Cn2nc(-c3cccc(C(=O)NCCO)c3)ccc2=O)c1` [A49] stands 6.00 to 8.00; under `CCOC(=O)Nc1cccc(Cn2nc(-c3cccc(CC(=O)NCCCOC)c3)ccc2=O)c1` [A70], 6.00 to 8.00. As for `CCOC(=O)Nc1cccc(Cn2nc(-c3cccc(CC(=O)NCCCCN)c3)ccc2=O)c1` [A139], the figure is 6.00 to 8.00; as for `CCOC(=O)Nc1cccc(Cn2nc(-c3ccc(C(=O)NCCCN)cc3)ccc2=O)c1` [A130], 6.00 to 8.00.

`CCOC(=O)Nc1cccc(Cn2nc(-c3ccc(CN(Cc4ncc[nH]4)Cc4ncc[nH]4)cc3)ccc2=O)c1` [A171, ethyl{3-[3-(4-{[bis(1H-imidazol-2-ylmethyl)amino]methyl}-phenyl)-6-oxo-6H-pyridazin-1-ylmethyl]phenyl}carbamate] had a negative-log IC50 (pIC50) of 6.00 to 8.00.

`CCOC(=O)Nc1cccc(Cn2nc(-c3ccc(CNC(=O)COC)cc3)ccc2=O)c1` [A81] gave a pIC50 of 6.00 to 8.00.

On to `CCOC(=O)Nc1cccc(Cn2nc(-c3ccc(C(=O)NCCCN4CCCC4)cc3)ccc2=O)c1` [A23], for which the pIC50 was 6.00 to 8.00. Regarding `CCOC(=O)Nc1cccc(Cn2nc(-c3cccc(CNC(=O)CCNC=O)c3)ccc2=O)c1` [A104], the pIC50 is 6.00 to 8.00.

Compound `CCOC(=O)Nc1cccc(Cn2nc(-c3cccc(CC(=O)NCCOC)c3)ccc2=O)c1` [A68] showed a pIC50 of 6.00 to 8.00. As for `CCOC(=O)Nc1cccc(Cn2nc(-c3cccc(CC(=O)NCCN)c3)ccc2=O)c1` [A141], the figure is 6.00 to 8.00; as for `CCOC(=O)Nc1cccc(Cn2nc(-c3ccc(CNC(=O)CCNC=O)cc3)ccc2=O)c1` [A78], 6.00 to 8.00.

The compound `CCOC(=O)Nc1cccc(Cn2nc(-c3cccc(CC(=O)N(C)CCO)c3)ccc2=O)c1` [A67] gave a pIC50 of 6.00 to 8.00. On to `CCOC(=O)Nc1cccc(Cn2nc(-c3cccc(C(=O)NCCCCO)c3)ccc2=O)c1` [A53], for which the pIC50 is 6.00 to 8.00. `CCOC(=O)Nc1cccc(Cn2nc(-c3ccc(CC(=O)NCCNC(=O)OC(C)(C)C)cc3)ccc2=O)c1` [A55]: the pIC50 is 6.00 to 8.00. `CCOC(=O)Nc1cccc(Cn2nc(-c3cccc(CC(=O)NCCN(C)C)c3)ccc2=O)c1` [A65]: the pIC50 is 6.00 to 8.00. Regarding `CCOC(=O)Nc1cccc(Cn2nc(-c3ccc(C(=O)NCCCN4CCCC4=O)cc3)ccc2=O)c1` [A24], the pIC50 was 6.00 to 8.00. Regarding `CCOC(=O)Nc1cccc(Cn2nc(-c3ccc(C(=O)NCCN4CCOCC4)cc3)ccc2=O)c1` [A17], the pIC50 was 6.00 to 8.00.

For `CCOC(=O)Nc1cccc(Cn2nc(-c3cccc(CC(=O)NCCO)c3)ccc2=O)c1` [A72], the pIC50 was 6.00 to 8.00. `CCOC(=O)Nc1cccc(Cn2nc(-c3cccc(CNC(=O)Cn4cnnn4)c3)ccc2=O)c1` [A95] gave a pIC50 of 6.00 to 8.00. Under `CCOC(=O)CN(C)C(=O)c1ccc(-c2ccc(=O)n(Cc3cccc(NC(=O)OCC)c3)n2)cc1` [A9] stands 6.00 to 8.00. With `CCOC(=O)Nc1cccc(Cn2nc(-c3cccc(C(=O)NCCCCNC(=O)OC(C)(C)C)c3)ccc2=O)c1` [A43, ethyl(3-{3-[3-(4-tert-butoxycarbonylaminobutylcarbamoyl)-phenyl]-6-oxo-6H-pyridazin-1-ylmethyl}phenyl)carbamate], the pIC50 was 6.00 to 8.00.

Take `CCOC(=O)Nc1cccc(Cn2nc(-c3ccc(C(=O)NCCCOC)cc3)ccc2=O)c1` [A16]: the pIC50 is 6.00 to 8.00. As for `CCOC(=O)Nc1cccc(Cn2nc(-c3cccc(C(=O)NCCCCN)c3)ccc2=O)c1` [A136], the figure is 6.00 to 8.00. Under `CCOC(=O)Nc1cccc(Cn2nc(-c3ccc(C(=O)NCCN)cc3)ccc2=O)c1` [A132] stands 6.00 to 8.00. For `CCOC(=O)Nc1cccc(Cn2nc(-c3ccc(CNC(=O)CN(C)C)cc3)ccc2=O)c1` [A80], the pIC50 is 6.00 to 8.00. With `CCOC(=O)Nc1cccc(Cn2nc(-c3ccc(C(=O)NCCCn4ccnc4)cc3)ccc2=O)c1` [A10], the pIC50 is 6.00 to 8.00.

In the case of `CCOC(=O)Nc1cccc(Cn2nc(-c3cccc(CNC(=O)CN(C)C)c3)ccc2=O)c1` [A102], the pIC50 is 6.00 to 8.00. Take `CCOC(=O)Nc1cccc(Cn2nc(-c3cccc(C(=O)NCCN)c3)ccc2=O)c1` [A138]: the pIC50 is 6.00 to 8.00. The compound `CCOC(=O)Nc1cccc(Cn2nc(-c3ccc(C(=O)NCCCN(CC)CC)cc3)ccc2=O)c1` [A25] showed a pIC50 of 6.00 to 8.00.

The compound `CCOC(=O)Nc1cccc(Cn2nc(-c3ccc(CNC(=O)CN)cc3)ccc2=O)c1` [A134] showed a pIC50 of 6.00 to 8.00. For the compound `CCOC(=O)Nc1cccc(Cn2nc(-c3cccc(C(=O)NCCCO)c3)ccc2=O)c1` [A52], the pIC50 is 6.00 to 8.00. `CCOC(=O)Nc1cccc(Cn2nc(-c3cccc(CC(=O)NCCCN(C)C)c3)ccc2=O)c1` [A64] had a pIC50 of 6.00 to 8.00. `CCOC(=O)Nc1cccc(Cn2nc(-c3ccc(CNC(=O)CN4CCNCC4)cc3)ccc2=O)c1` [A143] gave a pIC50 of 6.00 to 8.00.

As to `CCOC(=O)Nc1cccc(Cn2nc(-c3ccc(CNC(=O)CO)cc3)ccc2=O)c1` [A85], the pIC50 was 6.00 to 8.00. In turn, `CCOC(=O)Nc1cccc(Cn2nc(-c3cccc(CNC(=O)CCN)c3)ccc2=O)c1` [A135] showed a pIC50 of 6.00 to 8.00. For `CCOC(=O)Nc1cccc(Cn2nc(-c3cccc(CO)c3)ccc2=O)c1` [A122, ethyl{3-[3-(3-hydroxymethylphenyl)-6-oxo-6H-pyridazin-1-ylmethyl]phenyl}carbamate], the pIC50 is 6.00 to 8.00.

Usually pIC50 stands for −log10 of the IC50, conventionally taken in molar units. A lower pIC50 goes with a high IC50.

The values above are taken from patent US8367668B2, “Pyridazinone derivatives” (Merck Patent Gesellschaft mit Beschränkter Haftung, priority 2007, dated 2013).
